The text below walks through data of PMC5460201, “Bacterial protease uses distinct thermodynamic signatures for substrate recognition” (Scientific Reports, 2017).

Data set [1] has as its target Porphyromonas endodontalis dipeptidyl peptidase 11, PeDPP11_(22-717) S652A (Porphyromonas endodontalis) (UniProt F8WQK8). The data set can be described thus: ITC; peptide injected into PeDPP11 in the cell; 10 mM Hepes-NaOH pH 7.4, 100 mM NaCl; 25 °C; one-site binding model. For orientation: Isothermal titration calorimetry measures the heat released or taken up as one component is titrated into another.

Data set [2] has as its system cAMP-dependent protein kinase A (PKA-C). The settings on record: NMR and molecular dynamics; ref [40]; cited from earlier work. From the text: Due to experimental challenges, the role of conformational entropy in molecular recognition by proteins has begun to be elucidated only recently, mainly by nuclear magnetic resonance (NMR) relaxation methods. Using NMR techniques and molecular dynamics simulations, Veglia and colleagues observed in cAMP-dependent protein kinase A (PKA-C) a similar binding mode to that of DPP11. […] Conversely, binding of the inhibitor PKI5-24 (protein ki ...

Data set [3] concerns the target T1, PeDPP11 (PeDPP11_22-717 S652A) (Porphyromonas endodontalis, UniProt F8WQK8, S652A).
T1 construct: genes encoding for C-terminal 6xHis-tagged PeDPP11_22-717 S652A and PgDPP11_22-720 S655A in the pET-22b(+) vector; 6xHis (C); made in house; host or cells: E. coli BL21(DE3)pLysS
The data set can be described thus: Isothermal titration calorimetry (ITC) of peptide binding to PeDPP11. Here is the method:
All experiments were carried out in 10 mM Hepes-NaOH pH 7.4, 100 mM NaCl. Both the enzymes and the peptides were dissolved in the same buffer. The bindings were analysed with a MicroCal^TM iTC200 microcalorimeter (GE Healthcare, Life Sciences) equilibrated at the respective temperature. […] Every injection was carried out over a period of 4 s with a spacing of 110 s between the injections. […] These corrected values were plotted against the ratio peptide vs. protein concentration in the cell to generate the binding isotherm. Nonlinear least-squares fitting using Origin version 7.0 (Microcal) was used to obtain the association constants (K a), heats of binding (ΔH) and stoichiometries. […] The reported values are averages of at least two independent measurements.

The data set “SEC-MALS” concerns the molecule itself. The data set can be described thus: SEC-MALS. Background: Size exclusion chromatography separates by hydrodynamic size, large species first.

Peptide text beside a SMILES is read from it.

dipeptide LD displayed a dH in data set [1] of -22 kJ/mol.

In the case of PKI5-24, in data set [2], the “effect on PKA-C protein dynamics” value is reported as “stabilizes the protein, quenching the enzyme dynamics” and the “thermodynamic signature of binding to PKA-C” value is listed as “enthalpically driven”.

In data set [1], dipeptide Arg-Asp registered a dH of -15.5 kJ/mol.

The molecule Arg-Asp [RD] had a ΔH bind in data set [3] (25 °C, 10 mM Hepes-NaOH pH 7.4, 100 mM NaCl, 600 μM LDVW to 60 μM, 810 μM LD to 75 μM, 1 mM LDL to 75 μM, 1.0 mM RD to 80 μM PeDPP11, averages of at least two independent measurements) of -15.5 kJ/mol. For the same molecule, in data set [3] (25 °C, due to water displacement caused by peptide binding and concomitant domain motion), the “change in entropy on binding” value is listed as “favourable change in entropy”. For the same molecule, in data set [3] (25 °C, pH 7.4), the “thermodynamic signature of binding” value is recorded as “enthalpy-driven process”.

With “PLN1-20: substrate PLN1-20 (phospholamban) of PKA-C (MEKVQYLTRSAIRRASTIEM; UniProt P26678 1-20, looked up, fragment)”, in data set [2], the “effect on PKA-C protein dynamics” value is reported as “increased conformational dynamics” and the “thermodynamic signature of binding to PKA-C” value is given as “entropically driven”.

In the case of substrate peptide Leu-Asp-Val-Trp, in data set [1], the dH worked out at 23.8 kJ/mol.

What is called Kd is the equilibrium constant for the complex coming apart. Read a high Kd as weaker binding. With `CC(C)C[C@H](N)C(=O)N[C@@H](CC(=O)O)C(=O)O` [LD] (H-Leu-Asp-OH), the Kd in data set [3] (10 °C (283 K), 10 mM Hepes-NaOH pH 7.4, 100 mM NaCl, 1.28 mM LD to 120 μM PeDPP11, averages of at least two independent measurements) was 0.5 ± 0.1 µM; in data set [3] (20 °C (293 K), 10 mM Hepes-NaOH pH 7.4, 100 mM NaCl, averages of at least two independent measurements), 1 ± 0.3 µM.

`CC(C)C[C@H](N)C(=O)N[C@@H](CC(=O)O)C(=O)N[C@H](C(=O)N[C@@H](Cc1c[nH]c2ccccc12)C(=O)O)C(C)C` [LDVW, Leu-Asp-Val-Trp] (H-LDVW-OH): the Kd in data set [3] (15 °C (288 K), 10 mM Hepes-NaOH pH 7.4, 100 mM NaCl, averages of at least two independent measurements) came out at 9 ± 0.7 µM.

substrate peptide LDL: in data set [1], the dH is 17 kJ/mol.

B1: Porphyromonas endodontalis dipeptidyl peptidase 11, PeDPP11_(22-717) S652A (enzyme)
chain: DGGMWLMQQINGQVARMKSLGMQLEAADIYNPNGSSLKDAVVMFDGGCTGVLVSNQGLLLTNHHCGYDQIQKHSSVQHNYLKDGFWSYSLAEELVNPGLEVEIVDEITDVTAAVKKELERIKKPSGLEFLSPRYLSSLAPEIVGKKAASRPGYRYEIKAFYGGNRYYMFTKKVFRDVRLVAAPPSSIGKFGSDTDNWAWPRHTGDFSIFRLYADKNGNPAEYSKDNVPYRPKRWVKVNAQGVKEGDFALIMGYPGTTYKFFTADEVTEWSEIDNNIRIEMRGILQDVMLREMLADPKINIMYAAKYASSQNGYKRAQGANWAIRRRSLREIKLAQQQEVLAWAKQKGIATTEEAVRAISKAIEGRQDLRMRQRYLLEGILMGIEMSNAPAADSDIADHWDDPARREAGLQSIRKQFEAFFNKDYSPEVEKDQLAIALLTRYAERIPAEKQPISIREGIAEYGSAKAYVEMIFDKSIYASRERFEEFMKNPDRDRLLRDPMSRFAASVAYEHQKLAKEVAAFDAPLAAAQRSYVASVLDMKGQPNLAPDANLTLRFTYGEIKGYQPRDVVTYGAKSTLEGVMEKEDPNNWEYVVDPKLKALYEAKNYGRYANSDGSMPVNFCATTHTTGGNAGSPVMNARGELIGLNFDRNWEGVGGDIEYLPNYQRSIILDIRYLLFIIDKFAGCQRLIDEIQPQF
notes: also called PeDPP11_(altconf); source: E. coli BL21(DE3)pLysS, purified (HisTrap, SEC)
One may read the stoichiometry N as a count of units in the complex or per binding partner. Consider B1, for which, in the data set “SEC-MALS”, the “stoichiometry N” value amounted to 2.
